Results on 1 molecule are retold here after article PMC6981816, “Characterization of Effectiveness in Concerted Ih Inhibition and IK(Ca) Stimulation by Pterostilbene (Trans-3,5-dimethoxy-4′-hydroxystilbene), a Stilbenoid” (International Journal of Molecular Sciences, 2020).

A word on the EC50: it is the concentration giving half of the maximal effect.

The experiment addresses T1, large-conductance Ca2+-activated K+ (BKCa) channel (IK(Ca)) (Rattus norvegicus, UniProt Q62976).
T1 construct: gene Kcnma1; native channel in GH3 pituitary cells
The experiment in a line: whole-cell patch clamp of IK(Ca), concentration-response; reversed by verruculogen. The class given is cell-based. In general terms: Patch clamp records ionic current or voltage across a cell membrane.

T1 sequence (Q62976 whole entry): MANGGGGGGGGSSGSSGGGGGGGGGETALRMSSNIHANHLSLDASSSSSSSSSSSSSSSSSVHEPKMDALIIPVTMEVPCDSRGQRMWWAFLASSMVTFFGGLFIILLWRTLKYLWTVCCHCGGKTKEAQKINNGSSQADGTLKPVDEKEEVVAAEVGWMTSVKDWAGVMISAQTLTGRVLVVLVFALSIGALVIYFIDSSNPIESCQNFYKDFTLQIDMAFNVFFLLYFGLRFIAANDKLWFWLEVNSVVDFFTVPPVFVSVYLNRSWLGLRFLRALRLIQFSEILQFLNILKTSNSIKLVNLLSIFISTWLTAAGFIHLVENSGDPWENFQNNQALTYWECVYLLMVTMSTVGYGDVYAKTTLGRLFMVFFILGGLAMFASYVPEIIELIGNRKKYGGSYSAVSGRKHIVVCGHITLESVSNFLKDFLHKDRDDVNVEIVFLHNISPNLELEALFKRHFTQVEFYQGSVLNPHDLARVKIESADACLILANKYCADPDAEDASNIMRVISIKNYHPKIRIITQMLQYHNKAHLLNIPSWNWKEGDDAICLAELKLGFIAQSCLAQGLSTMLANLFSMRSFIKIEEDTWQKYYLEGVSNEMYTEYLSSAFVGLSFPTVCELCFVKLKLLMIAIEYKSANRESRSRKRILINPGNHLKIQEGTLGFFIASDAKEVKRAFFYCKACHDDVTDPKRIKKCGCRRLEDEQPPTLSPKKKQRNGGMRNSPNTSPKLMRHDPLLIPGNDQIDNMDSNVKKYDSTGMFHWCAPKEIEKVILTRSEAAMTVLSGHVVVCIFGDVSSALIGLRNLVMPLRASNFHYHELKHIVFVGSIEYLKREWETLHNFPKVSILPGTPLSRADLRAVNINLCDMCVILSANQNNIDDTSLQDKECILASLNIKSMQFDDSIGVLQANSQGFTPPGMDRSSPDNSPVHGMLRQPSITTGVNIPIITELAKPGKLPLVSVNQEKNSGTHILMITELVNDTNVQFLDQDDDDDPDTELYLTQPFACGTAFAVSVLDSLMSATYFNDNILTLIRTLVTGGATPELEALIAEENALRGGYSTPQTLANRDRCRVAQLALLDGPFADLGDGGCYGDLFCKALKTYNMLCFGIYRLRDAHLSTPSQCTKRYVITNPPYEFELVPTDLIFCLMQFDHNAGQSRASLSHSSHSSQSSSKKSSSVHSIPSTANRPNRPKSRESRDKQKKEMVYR

`COc1cc(/C=C/c2ccc(O)cc2)cc(OC)c1` [PTER, trans-3,5-dimethoxy-4′-hydroxystilbene] gave an EC50 of 2230 nM.
